Laboratory results taken from US20240024504A1, “SITE-SELECTIVE LYSINE ACETYLATION OF HUMAN IMMUNOGLOBULIN G AND IgG-RELATED PRODUCTS FOR IMMUNOTHERAPY” (The Chinese University of Hong Kong, priority 2022, published 2024).

Columns and labels:
IgG Fc = assay: Competition between reactive peptide (F1) and non-reactive peptide; assay type: biochemical, human; details: non-reactive peptide added to the reaction of F1 and IgG
Protocol: (FIG. 3A) The structures of peptides used in this work. FITC moiety was added at the N-termini of the peptides to MST analysis.

[1] = system: PD-L1 positive (PC12) cells; assay: Immunofluorescence of modified atezolizumab, confocal microscopy; assay type: cell-based; details: 150 nM, PBS pH 7.4, 37° C., 15 min
Protocol: FIG. 5A-5B Acetylation of therapeutic antibody and immunofluorescence. (FIG. 5A) Acetylation reaction monitored by SDS-PAGE and fluorescent scanning. Reaction condition: 4 μM antibodies, 24 μM F1, PBS buffer (pH 7.4), at 37° C. for 1 h. The reactions were quenched with 1% SDS and DBCO-TAMRA was added at room temperature for 1.5 h for SPAAC reaction before SDS-PAGE and in-gel fluorescent imaging. Lane M, molecular weight marker; lane 1, M-trastuzumab; lane 2, M-cetuximab; lane 3, M-daratumumab; […], reduced results of […]. […] Incubation conditions: Cells were incubated with modified antibodies (150 nM) in PBS buffer (pH 7.4) at 37° C. for 15 min before the fixation of cells.

His-tagged human PD-L1 = target: T1, His-tagged human PD-L1 (Homo sapiens, UniProt Q9NZQ7); assay: Pull-down assay of modified atezolizumab on PD-L1 loaded Ni-NTA resins; assay type: binding; details: PD-L1 immobilized on Ni-NTA resins
T1 construct: purchased GenScript
Protocol: (FIG. 16A) A pull-down experiment in vitro. […] (FIG. 16B) FITC labeled PD-L1 was immobilized on Ni-NTA agarose resin through polyhistidine tag.
Ni-NTA agarose resins were resuspended and 20 μL resins were pipetted into a 1.5 mL tube. After washing with PBS-T buffer (phosphate buffered saline supplemented with 0.1% Tween-20), His-tagged human PD-L1 (200 nM) was immobilized on Ni-NTA resins in 100 μL buffer solution (20 mM imidazole, pH 7.4 PBS-T) at room temperature for 1 h with shaking. The binding solution was removed by centrifugation and the resins were washed three times with pH 7.4 PBS-T buffer. Then Atezo-TAMRA (100 nM) was incubated with the resins in 100 μL buffer solution (20 mM imidazole, pH 7.4 PBS-T) for 1 h with shaking. Next, the resins were washed three times with PBS-T and eluted by boiling the beads for 10 min in 2× sample loading buffer. The samples were analyzed by SDS-PAGE. As a negative control, same amount of polyclonal IgG was incubated with the PD-L1 loaded resins. For confocal microscopy, His-tagged human PD-L1 was firstly labelled by FITC.

T1 sequence (Q9NZQ7 19-290): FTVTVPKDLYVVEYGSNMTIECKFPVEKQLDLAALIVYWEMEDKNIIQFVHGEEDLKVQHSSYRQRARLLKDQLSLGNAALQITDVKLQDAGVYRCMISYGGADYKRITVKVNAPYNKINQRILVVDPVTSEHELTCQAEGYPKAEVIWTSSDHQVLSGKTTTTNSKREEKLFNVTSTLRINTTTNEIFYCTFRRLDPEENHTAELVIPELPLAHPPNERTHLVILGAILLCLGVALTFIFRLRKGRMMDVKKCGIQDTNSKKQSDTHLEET

Compound	effect on the acetylation reaction of F1 and IgG (IgG Fc)	binding to cells (immunofluorescence) [1]	binding to PD-L1 (pull-down) (His-tagged human PD-L1)	binding to PD-L1 (pull-down) (His-tagged human PD-L1; listed as acetylated atezolizumab)
CC(C)C[C@@H]1NC(=O)C(CCC(=O)O)NC(=O)CNC(=O)[C@H](CC(C)C)NC(=O)[C@H](Cc2c[nH]cn2)NC(=O)[C@H](Cc2c[nH]c3ccccc23)NC(=O)[C@H](C)NC(=O)[C@@H](NC(=O)[C@H](CC(=O)O)NC(=O)CCNC(=O)CNC(=S)Nc2ccc(-c3c4ccc(=O)cc-4oc4cc(O)ccc34)c(C(=O)O)c2)CSSC[C@@H](C(=O)N[C@H](C(N)=O)[C@@H](C)O)NC(=O)[C@H](Cc2c[nH]c3ccccc23)NC(=O)[C@H](C(C)C)NC1=O (stereo partly shown) [f-F0]	abolished the acetylation reaction	–	–	–
M-Atezo: atezolizumab azidoacetylated at Lys248 of the Fc by F1 (DBCO-TAMRA tagged for detection)	–	maintained their binding with PD-L1 positive (PC12) cells	reserved the binding ability to PD-L1	could still bind its ligand
